Measured values as given in patent US20260015372A1, “Organophosphorous Compounds and Uses Thereof” (priority 2022, published 2026).
“Also recorded” adds a separate entry of the source. Where two headings read alike, the source gives them in different places.

Assays:
BCHE [1] = target: T1, BCHE (Homo sapiens (Human), UniProt P06276); experiment: biochemical; type: biochemical; settings: for Mode of Inhibition: Irreversible = enzyme covalently modified
Method: The compounds referred to herein have BCHE inhibitory activity. To determine the inhibitory values, enzymes were incubated for 2 hours in the presence of varying concentrations of compound prior to activity measurements. Activity is then measured colorimetrically upon addition of substrate and Ellman's reagent.

ACHE [2] = target: T2, ACHE (Homo sapiens (Human), UniProt P22303); experiment: ACHE inhibition, colorimetric with substrate and Ellman's reagent; type: biochemical; settings: for Inhibition of ACHE: [ATC] = 0.1 mM
T2 sequence (P22303 32-614): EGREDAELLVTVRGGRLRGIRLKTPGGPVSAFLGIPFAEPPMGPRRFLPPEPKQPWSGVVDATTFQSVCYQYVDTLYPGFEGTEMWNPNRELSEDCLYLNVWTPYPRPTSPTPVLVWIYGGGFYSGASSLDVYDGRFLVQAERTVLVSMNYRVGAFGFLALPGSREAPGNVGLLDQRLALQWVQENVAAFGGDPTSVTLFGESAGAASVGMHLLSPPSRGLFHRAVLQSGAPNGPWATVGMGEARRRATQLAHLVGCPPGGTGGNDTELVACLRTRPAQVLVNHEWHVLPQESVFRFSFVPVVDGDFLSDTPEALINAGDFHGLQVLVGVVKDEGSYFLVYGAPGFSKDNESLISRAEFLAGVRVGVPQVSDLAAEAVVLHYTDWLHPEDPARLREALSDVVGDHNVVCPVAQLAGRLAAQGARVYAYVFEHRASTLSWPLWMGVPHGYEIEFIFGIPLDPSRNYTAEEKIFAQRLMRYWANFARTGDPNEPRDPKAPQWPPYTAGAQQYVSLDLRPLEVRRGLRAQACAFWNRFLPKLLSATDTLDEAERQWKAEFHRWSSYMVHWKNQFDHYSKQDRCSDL

Aβ (1-40) peptide = Aβ (1-40) peptide (Homo sapiens, UniProt P05067); experiment: Thioflavin T fluorescence assay of β-amyloid peptide aggregation; type: biochemical; settings: 30 μM peptide, 25° C., 2 hours, ThT fluorescence
Method: Neurotoxic plaques, i.e., aggregates of β-amyloid peptide, bind thioflavin T (ThT) and show significant fluorescence.
Aβ (1-40) peptide was solubilized in hexafluoroisopropanol (HFIP). A solution of 25 μM ThT was prepared in 0.025 M phosphate buffer, pH 6.0. Peptide was dissolved in 0.01 M PBS; 0.1M NaCl, pH7.4 to a final concentration of 30 μM. Inhibitors were prepared in methanol. The final concentration of HFIP and methanol were 2% and 10% (v/v) respectively. The control sample consisted peptide incubated in PBS/2% HFI/10% methanol without inhibitor. All samples were mixed and incubated at 25° C. for 2 hours. Fluorescence was measured by mixing 470 μL of ThT solution with 30 μL of the protein solution. Excitation and emission wavelengths were 440 nm with 5 nm slit width and 485 nm with 10 nm slit width, respectively. Biological activity was calculated as percent of inhibitory activity of inhibitor at varying concentration was calculated using the following equation: Vi=100−[(Fi−Fb)/F0]×100. The higher the Vi, the less aggregation of amyloid peptide.

[3] = target: serum butyrylcholinesterase (Mus musculus (Mouse), UniProt Q03311); experiment: In vivo serum butyrylcholinesterase activity; design: species or system transgenic Alzheimer's mice; settings: 10 mg and 20 mg doses over 11 months and 13 months; listed as DB2CIPP
Sequence of serum butyrylcholinesterase (Q03311 30-603 limits assumed): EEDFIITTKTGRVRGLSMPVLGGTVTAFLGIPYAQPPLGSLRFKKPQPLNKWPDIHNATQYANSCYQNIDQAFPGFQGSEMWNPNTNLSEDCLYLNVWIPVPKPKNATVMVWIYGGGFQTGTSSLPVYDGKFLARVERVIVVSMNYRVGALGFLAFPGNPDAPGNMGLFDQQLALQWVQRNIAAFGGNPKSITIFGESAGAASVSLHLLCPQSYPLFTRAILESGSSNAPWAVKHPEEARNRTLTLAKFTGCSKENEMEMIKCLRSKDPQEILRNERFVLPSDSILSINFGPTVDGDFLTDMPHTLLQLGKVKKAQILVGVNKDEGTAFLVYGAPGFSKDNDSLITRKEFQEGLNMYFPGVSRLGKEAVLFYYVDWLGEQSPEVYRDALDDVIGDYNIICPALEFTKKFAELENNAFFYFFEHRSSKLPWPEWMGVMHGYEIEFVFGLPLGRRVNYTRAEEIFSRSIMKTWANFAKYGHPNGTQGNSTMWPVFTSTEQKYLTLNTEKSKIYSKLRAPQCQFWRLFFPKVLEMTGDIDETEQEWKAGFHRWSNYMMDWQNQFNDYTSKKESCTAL
Description: (§1) DB2CIPP Testing Results Inhibition of BChE in brain and serum. Di-n-butyl 2 chlorophenyl phosphate (DB2CIPP) inhibits BChE in brain and serum without inhibiting AChE in serum (see FIG. 5, FIG. 7, and FIG. 8).

[4] = target: hippocampal butyrylcholinesterase (Mus musculus (Mouse), UniProt Q03311); experiment: In vivo hippocampal butyrylcholinesterase activity; design: species or system transgenic Alzheimer's mice; settings: 10 mg and 20 mg doses over 11 months; listed as DB2CIPP
Sequence of hippocampal butyrylcholinesterase (Q03311 30-603 limits assumed): as above
Description: as §1

[5] = target: serum acetylcholinesterase (Mus musculus (Mouse), UniProt P21836); experiment: In vivo serum acetylcholinesterase activity; design: species or system transgenic Alzheimer's mice; settings: 10 mg and 20 mg doses over 11 months and 13 months; listed as DB2CIPP
Sequence of serum acetylcholinesterase (P21836 32-614 limits assumed): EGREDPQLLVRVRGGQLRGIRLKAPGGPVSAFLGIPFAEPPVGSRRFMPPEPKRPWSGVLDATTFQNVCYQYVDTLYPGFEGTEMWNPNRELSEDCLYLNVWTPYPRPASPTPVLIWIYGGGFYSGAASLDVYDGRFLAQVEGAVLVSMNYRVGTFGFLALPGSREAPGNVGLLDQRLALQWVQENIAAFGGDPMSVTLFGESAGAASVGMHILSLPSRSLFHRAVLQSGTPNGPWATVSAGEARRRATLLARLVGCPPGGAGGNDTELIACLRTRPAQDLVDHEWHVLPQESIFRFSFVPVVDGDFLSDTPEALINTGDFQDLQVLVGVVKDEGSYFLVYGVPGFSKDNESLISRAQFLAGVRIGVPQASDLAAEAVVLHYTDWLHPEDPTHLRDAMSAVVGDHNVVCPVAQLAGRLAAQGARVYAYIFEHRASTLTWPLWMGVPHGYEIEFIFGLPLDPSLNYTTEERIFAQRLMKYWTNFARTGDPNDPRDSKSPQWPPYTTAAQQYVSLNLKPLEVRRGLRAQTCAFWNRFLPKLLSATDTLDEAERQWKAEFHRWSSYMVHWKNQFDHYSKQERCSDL
Description: as §1

β-amyloid plaque = experiment: In vivo β-amyloid plaque formation, immunohistochemistry; design: species or system transgenic Alzheimer's mice
Description: Images show immunohistochemistry of 13-month transgenic Alzheimer's disease mice brains at subiculum region of hippocampus, treated with DB2CIPP and DMSO control beginning at 9 months. […] Selective inhibition of butyrylcholinesterase in the brain is widely documented as a potential treatment for Alzheimer's disease and dementia, by improving cognition and modulating neuropathological markers of the disease. As an inhibitor of butyrylcholinesterase, DB2CIPP may also be used to inhibit or slow the progression of the Alzheimer's-like symptoms seen in long COVID.

[6] = In vivo blood brain barrier crossing; settings: other in vivo tests
BCHE [7] = target: T1, BCHE; type: biochemical; settings: 20 μM inhibitor, 2 minutes; Activity of Inhibitor incubated enzyme/Activity of unincubated enzyme
ACHE [8] = target: T2, ACHE; experiment: Relative Activity of ACHE, 20 μM inhibitor for 2 minutes; type: biochemical; settings: Activity of Inhibitor incubated enzyme/Activity of unincubated enzyme
Method: In order to compare the relative inhibitory activity of the five compounds 27, 35, 89, 90 and 92 against BCHE and ACHE, a solution of each enzyme was incubated with 20 μM of the inhibitor for 2 minutes, and the enzyme activity determined. Table 5 lists the Relative Activity (=Activity of Inhibitor incubated enzyme/Activity of unincubated enzyme).

[9] = enzyme incubated 2 hours with compound
[10] = enzyme incubated 2 hours with compound, read-out: BCHE Ki ± SEM

T1 sequence (P06276 29-602, species assumed): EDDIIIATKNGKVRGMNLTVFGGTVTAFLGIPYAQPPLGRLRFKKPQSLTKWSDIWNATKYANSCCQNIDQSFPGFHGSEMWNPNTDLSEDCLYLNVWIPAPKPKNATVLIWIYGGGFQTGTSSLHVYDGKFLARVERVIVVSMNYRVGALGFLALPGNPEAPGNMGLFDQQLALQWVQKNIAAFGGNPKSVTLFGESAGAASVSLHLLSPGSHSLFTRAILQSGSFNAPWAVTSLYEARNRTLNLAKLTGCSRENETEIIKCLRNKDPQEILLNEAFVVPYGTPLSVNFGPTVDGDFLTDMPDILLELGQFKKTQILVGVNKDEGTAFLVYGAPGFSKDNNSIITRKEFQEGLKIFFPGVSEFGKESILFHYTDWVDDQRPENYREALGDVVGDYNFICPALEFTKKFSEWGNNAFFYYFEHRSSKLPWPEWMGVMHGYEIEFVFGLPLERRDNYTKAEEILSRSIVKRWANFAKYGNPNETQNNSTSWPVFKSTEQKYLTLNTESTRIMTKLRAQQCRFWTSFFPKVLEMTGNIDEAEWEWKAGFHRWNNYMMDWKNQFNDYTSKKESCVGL

## CCCCOP(=O)(OCCCC)OCCCOP(=O)(OCCCC)OCCCC [Compound 59, Tetrabutyl propane-1,3-diyl bisphosphate]
BCHE [1]; [9]
  IC50: 0.79 µM

## CCCCOP(=O)(OCCCC)Oc1ccccc1Cl [Compound 9, Di-n-butyl 2-chlorophenyl phosphate]
BCHE [1]
  IC50: 0.00069 µM
  Mode of Inhibition: Irreversible^g
BCHE [1]; ACHE IC50 vs BCHE IC50
  Selectivity toward BCHE over ACHE: approximately 68,000 fold
BCHE [1]; [9]
  IC50: 0.00069 µM
ACHE [2]
  IC50: 47 µM
ACHE [2]; [9]
  IC50: 47 µM
Aβ (1-40) peptide
  Inhibition of aggregation of β-amyloid peptides: did not inhibit
[3]
  Inhibition of serum butyrylcholinesterase activity: significant inhibition
[4]
  Inhibition of hippocampal butyrylcholinesterase activity: significant inhibition
[5]
  Serum acetylcholinesterase activity: substantially not altered; also recorded: not significantly altered
β-amyloid plaque; 10 mg or 20 mg doses over 13 months, vs untreated mice
  Beta amyloid plaques immunopositive staining in the hippocampus: reduced
β-amyloid plaque; 13-month mice, subiculum region of hippocampus, treated beginning at 9 months, vs DMSO control, listed as DB2CIPP
  Inhibition of β-amyloid plaque formation: significant inhibition
[6]
  Ability to cross the blood brain barrier (BBB): cross the blood brain barrier

## O=P(Oc1ccccc1)(OC1CCCCC1)OC1CCCCC1 [Compound 98, Di-cyclohexyl phenyl phosphate]
BCHE [1]
  Ki: 7 µM
  Mode of Inhibition: ^aPartial competitive.
ACHE [2]; inhibitor 3 mM
  Inhibition of ACHE: ^eNo inhibition at [1f] = 3 mM and [ATC] = 0.1 mM.

## CCCCCOP(=O)(OCCCCC)Oc1ccccc1 [Compound 97, Di-n-pentyl phenyl phosphate]
BCHE [1]
  Ki: 6 µM
  Mode of Inhibition: ^aPartial competitive.
ACHE [2]; inhibitor 3 mM
  Inhibition of ACHE: ^d<8% Inhibition at [le] = 3 mM and [ATC] = 0.1 mM.

## COP(=O)(OC)Oc1ccccc1 [Compound 93, Dimethyl phenyl phosphate]
BCHE [1]
  Ki: 1700 µM
ACHE [2]
  Ki: 6500 µM

## CCOP(=O)(OCC)OCCCCOP(=O)(OCC)OCC [Compound 54, Tetraethyl butane-1,4-diyl bisphosphate]
BCHE [1]; [9]
  IC50: 8.2 µM

## CCCCOP(=O)(OCCCC)Oc1ccccc1 [Compound 96, Di-n-butyl phenyl phosphate]
ACHE [2]; inhibitor 1 mM
  Inhibition of ACHE: ^cNo inhibition at [1d] = 1 mM and [ATC] = 0.1 mM.

## CCCCOP(=O)(Cc1cc(C)cc(C)c1)OCCCC [Compound 92, Di-n-butyl 3,5-dimethylbenzylphosphonate]
BCHE [1]
  Mode of Inhibition: Irreversible^g
BCHE [7]
  Relative Activity of BCHE: 0.64
ACHE [8]
  Relative Activity of ACHE: 0.99

## CCCCOP(=O)(OCCCC)OCCCCCCOP(=O)(OCCCC)OCCCC [Compound 62, Tetrabutyl hexane-1,6-diyl bisphosphate]
BCHE [1]
  Mode of Inhibition: Reversible
BCHE [1]; [10]
  Ki: 4 µM
Aβ (1-40) peptide
  Inhibition of aggregation of β-amyloid peptides: significantly inhibited

## CCCCOP(=O)(OCCCC)Oc1cc(C)cc(C)c1 [Compound 27, Di-n-butyl 3,5-dimethylphenyl phosphate]
BCHE [1]
  Ki: 1 µM
  Mode of Inhibition: Reversible
BCHE [7]
  Relative Activity of BCHE: 0.45
ACHE [8]
  Relative Activity of ACHE: 0.93

## CCOP(=O)(OCC)OCCOCCOP(=O)(OCC)OCC [Compound 58, Tetraethyl 3-oxapentane-1,5-diyl bisphosphate]
BCHE [1]; [9]
  IC50: 11.1 µM

## CCOP(=O)(OCC)Oc1ccccc1 [Compound 94, Diethyl phenyl phosphate]
BCHE [1]
  Ki: 55 µM
ACHE [2]
  Ki: 3100 µM

## CCCCOP(=O)(Cc1ccc2ccccc2c1)OCCCC [Compound 90, Di-n-butyl 2-naphthylmethylphosphonate]
BCHE [1]
  Mode of Inhibition: Irreversible^g
BCHE [7]
  Relative Activity of BCHE: 0.45
ACHE [8]
  Relative Activity of ACHE: 0.95

## CCCCOP(=O)(Cc1cccc2ccccc12)OCCCC [Compound 89, Di-n-butyl 1-naphthylmethylphosphonate]
BCHE [1]
  Mode of Inhibition: Irreversible^g
BCHE [7]
  Relative Activity of BCHE: 0.47
ACHE [8]
  Relative Activity of ACHE: 0.96

## O=P(OCCCCCCOP(=O)(Oc1ccccc1)Oc1ccccc1)(Oc1ccccc1)Oc1ccccc1 [Compound 67, Tetraphenyl hexane-1,6-diyl bisphosphate]
BCHE [1]
  Mode of Inhibition: Reversible
Aβ (1-40) peptide
  Inhibition of aggregation of β-amyloid peptides: significantly inhibited

## CCCCOP(=O)(OCCCC)OCCCCCCCOP(=O)(OCCCC)OCCCC [Compound 63, Tetrabutyl heptane-1,7-diyl bisphosphate]
BCHE [1]; [9]
  IC50: 3.95 µM

## CCOP(=O)(OCC)OCCCCCOP(=O)(OCC)OCC [Compound 55, Tetraethyl pentane-1,5-diyl bisphosphate]
BCHE [1]; [9]
  IC50: 35.4 µM

## CCCCOP(=O)(OCCC=CCCOP(=O)(OCCCC)OCCCC)OCCCC [Compound 66, Tetrabutyl 3-hexene-1,6-diyl bisphosphate]
BCHE [1]; [9]
  IC50: 1.2 µM

## CCCCOP(=O)(OCCCC)OCCCCCOP(=O)(OCCCC)OCCCC [Compound 61, Tetrabutyl pentane-1,5-diyl bisphosphate]
BCHE [1]; [9]
  IC50: 2.72 µM

## CCCCOP(=O)(OCCCC)OCCCCCCCCOP(=O)(OCCCC)OCCCC [Compound 64, Tetrabutyl octane-1,8-diyl bisphosphate]
BCHE [1]; [9]
  IC50: 2.39 µM

## CCOP(=O)(OCC)OCCCOP(=O)(OCC)OCC [Compound 53, Tetraethyl propane-1,3-diyl bisphosphate]
BCHE [1]; [9]
  IC50: 8.26 µM

## CCOP(=O)(OCC)OCCCCCCOP(=O)(OCC)OCC [Compound 56, Tetraethyl hexane-1,6-diyl bisphosphate]
BCHE [1]
  Mode of Inhibition: Reversible
BCHE [1]; [10]
  Ki: 228 µM
Aβ (1-40) peptide
  Inhibition of aggregation of β-amyloid peptides: significantly inhibited

## CCOP(=O)(OCC)OCCCCCCCOP(=O)(OCC)OCC [Compound 57, Tetraethyl heptane-1,7-diyl bisphosphate]
BCHE [1]; [9]
  IC50: 40.1 µM

## CCCCOP(=O)(OCCCC)OCCOCCOP(=O)(OCCCC)OCCCC [Compound 65, Tetrabutyl 3-oxapentane-1,5-diyl bisphosphate]
BCHE [1]; [9]
  IC50: 31.2 µM

## CCCCOP(=O)(OCCCC)OCCCCOP(=O)(OCCCC)OCCCC [Compound 60, Tetrabutyl butane-1,4-diyl bisphosphate]
BCHE [1]; [9]
  IC50: 88.1 µM

## CCCCOP(=O)(OCCCC)Oc1ccc2ccccc2c1 [Compound 35, Di-n-butyl 2-napthyl phosphate]
BCHE [1]
  Ki: 1.9 µM
  Mode of Inhibition: Reversible
BCHE [7]
  Relative Activity of BCHE: 0.10
ACHE [8]
  Relative Activity of ACHE: 0.84

## CCCCOP(=O)(OCC)Oc1ccccc1 (racemic) [Compound 99, (±)-n-Butyl ethyl phenyl phosphate]
ACHE [2]; inhibitor 3 mM
  Inhibition of ACHE: ^f<8% inhibition at [2] = 3 mM and [ATC] = 0.1 mM.

## CCCOP(=O)(OCCC)Oc1ccccc1 [Compound 95, Di-n-propyl phenyl phosphate]
ACHE [2]; inhibitor 5 mM
  Inhibition of ACHE: ^b<20% Inhibition at [lc] = 5 mM and [ATC] = 0.1 mM.
